# Laboratory results from article PMC5218480 (PLoS ONE, 2017).
# Tested on: MV-4-11 cells
# Test: Gene expression microarray analysis (Affymetrix PrimeView) and GSEA
# Assay type: cell-based, human
# Parameters: RFU PODN (11730768_x_at) / Fold change /veh PODN (11730768_x_at) / RFU LINC00158 (11744669_a_at) / Fold change /veh LINC00158 (11744669_a_at) / RFU DUSP10 (11751237_a_at) / Fold change /veh DUSP10 (11751237_a_at) / RFU ID3 (11757404_x_at) / Fold change /veh ID3 (11757404_x_at) / RFU PLEKHG5 (11737974_s_at) / Fold change /veh PLEKHG5 (11737974_s_at) / RFU LRRC4B (11730491_at) / Fold change /veh LRRC4B (11730491_at) / RFU GIMAP4 (11747438_a_at) / Fold change /veh GIMAP4 (11747438_a_at) / RFU KRT8 (11758183_x_at) / Fold change /veh KRT8 (11758183_x_at) / RFU CNN1 (11734310_a_at) / Fold change /veh CNN1 (11734310_a_at) / RFU VPS37D (11726825_at) / Fold change /veh VPS37D (11726825_at) / RFU C10orf10 (11716522_x_at) / Fold change /veh C10orf10 (11716522_x_at) / RFU KIR2DL2 /// KIR2DL4 /// KIR2DL5A /// KIR2DL5B /// KIR2DS1 /// KIR2DS2 /// KIR2DS3 /// KIR2DS4 /// KIR3DL3 /// KIR3DL3 /// KIR3DS1 (11738374_at) / Fold change /veh KIR2DL2 /// KIR2DL4 /// KIR2DL5A /// KIR2DL5B /// KIR2DS1 /// KIR2DS2 /// KIR2DS3 /// KIR2DS4 /// KIR3DL3 /// KIR3DL3 /// KIR3DS1 (11738374_at) / RFU C1QL1 (11718748_at) / Fold change /veh C1QL1 (11718748_at) / RFU TMPRSS4 (11747572_a_at) / Fold change /veh TMPRSS4 (11747572_a_at) / RFU HAMP (11756126_x_at) / Fold change /veh HAMP (11756126_x_at) / RFU RNFT2 (11725882_a_at) / Fold change /veh RNFT2 (11725882_a_at) / RFU NR4A2 (11747474_a_at) / Fold change /veh NR4A2 (11747474_a_at) / RFU ABCC12 (11746883_a_at) / Fold change /veh ABCC12 (11746883_a_at) / RFU TMEM136 (11760407_x_at) / Fold change /veh TMEM136 (11760407_x_at) / RFU CLDN22 /// WWC2 (11732394_at) / Fold change /veh CLDN22 /// WWC2 (11732394_at) / RFU HLA-DPB1 (11760878_x_at) / Fold change /veh HLA-DPB1 (11760878_x_at) / RFU SPINT1 (11716480_a_at) / Fold change /veh SPINT1 (11716480_a_at) / RFU GAP43 (11754022_s_at) / Fold change /veh GAP43 (11754022_s_at) / RFU A4GNT (11735810_at) / Fold change /veh A4GNT (11735810_at) / RFU PRB3 (11715151_x_at) / Fold change /veh PRB3 (11715151_x_at) / RFU TUBB4B (11761932_at) / Fold change /veh TUBB4B (11761932_at) / RFU CAPN14 (11732068_a_at) / Fold change /veh CAPN14 (11732068_a_at) / RFU TMCC2 (11721928_a_at) / Fold change /veh TMCC2 (11721928_a_at) / RFU IRGQ (11745062_a_at) / Fold change /veh IRGQ (11745062_a_at) / RFU FAM174B (11720279_a_at) / Fold change /veh FAM174B (11720279_a_at) / RFU TMPRSS4 (11748680_a_at) / Fold change /veh TMPRSS4 (11748680_a_at) / RFU FAM212B (11763350_a_at) / Fold change /veh FAM212B (11763350_a_at) / RFU PLEKHG5 (11743358_a_at) / Fold change /veh PLEKHG5 (11743358_a_at) / RFU ZSCAN30 (11745921_a_at) / Fold change /veh ZSCAN30 (11745921_a_at) / RFU CMKLR1 (11741424_a_at) / Fold change /veh CMKLR1 (11741424_a_at) / RFU LOC101060620 /// MAPK8IP1 (11723275_at) / Fold change /veh LOC101060620 /// MAPK8IP1 (11723275_at) / RFU SPTSSB (11747773_x_at) / Fold change /veh SPTSSB (11747773_x_at) / RFU PRSS12 (11739890_at) / Fold change /veh PRSS12 (11739890_at) / RFU BIN1 (11741810_x_at) / Fold change /veh BIN1 (11741810_x_at) / RFU WNT11 (11732464_a_at) / Fold change /veh WNT11 (11732464_a_at) / RFU C10orf10 (11716521_a_at) / Fold change /veh C10orf10 (11716521_a_at) / RFU C5orf56 (11738089_at) / Fold change /veh C5orf56 (11738089_at) / RFU CYB561 (11721691_x_at) / Fold change /veh CYB561 (11721691_x_at) / RFU ANKRD19P (11752326_a_at) / Fold change /veh ANKRD19P (11752326_a_at) / RFU OR2T12 /// OR2T33 /// OR2T8 (11738714_s_at) / Fold change /veh OR2T12 /// OR2T33 /// OR2T8 (11738714_s_at) / RFU VCAN (11748164_a_at) / Fold change /veh VCAN (11748164_a_at) / RFU JSRP1 (11732532_at) / Fold change /veh JSRP1 (11732532_at) / RFU KRTAP10-11 (11738290_x_at) / Fold change /veh KRTAP10-11 (11738290_x_at) / RFU MYO3A (11730013_a_at) / Fold change /veh MYO3A (11730013_a_at) / RFU EBF3 (11725865_a_at) / Fold change /veh EBF3 (11725865_a_at) / RFU CAMK2N1 (11719241_x_at) / Fold change /veh CAMK2N1 (11719241_x_at) / RFU C5orf56 (11738088_a_at) / Fold change /veh C5orf56 (11738088_a_at) / RFU OLFML3 (11715873_a_at) / Fold change /veh OLFML3 (11715873_a_at) / RFU LOC100653217 /// NTM (11731650_a_at) / Fold change /veh LOC100653217 /// NTM (11731650_a_at) / RFU MAPK11 (11762145_a_at) / Fold change /veh MAPK11 (11762145_a_at) / RFU FIZ1 (11724087_x_at) / Fold change /veh FIZ1 (11724087_x_at) / RFU OASL (11726364_x_at) / Fold change /veh OASL (11726364_x_at) / RFU SOX15 (11748057_x_at) / Fold change /veh SOX15 (11748057_x_at) / RFU CD79A (11719716_a_at) / Fold change /veh CD79A (11719716_a_at) / RFU HIST1H1D (11736915_at) / Fold change /veh HIST1H1D (11736915_at) / RFU CASKIN2 (11723855_a_at) / Fold change /veh CASKIN2 (11723855_a_at) / RFU LOC730098 (11760151_x_at) / Fold change /veh LOC730098 (11760151_x_at) / RFU OR4N2 (11742367_at) / Fold change /veh OR4N2 (11742367_at) / RFU PRRT2 (11749266_a_at) / Fold change /veh PRRT2 (11749266_a_at) / RFU SNX32 (11753110_a_at) / Fold change /veh SNX32 (11753110_a_at) / RFU CDHR5 (11726645_a_at) / Fold change /veh CDHR5 (11726645_a_at) / RFU RCAN1 (11760418_a_at) / Fold change /veh RCAN1 (11760418_a_at) / RFU FAM167A (11723789_a_at) / Fold change /veh FAM167A (11723789_a_at) / RFU FAM26E (11764081_at) / Fold change /veh FAM26E (11764081_at) / RFU ISYNA1 (11749810_s_at) / Fold change /veh ISYNA1 (11749810_s_at) / RFU ACY1 (11761880_at) / Fold change /veh ACY1 (11761880_at) / RFU 11764098_at / Fold change /veh 11764098_at / RFU SAMD14 (11745864_x_at) / Fold change /veh SAMD14 (11745864_x_at) / RFU NPB (11741838_a_at) / Fold change /veh NPB (11741838_a_at) / RFU TMPRSS6 (11731388_a_at) / Fold change /veh TMPRSS6 (11731388_a_at) / RFU KRTAP10-2 (11738614_at) / Fold change /veh KRTAP10-2 (11738614_at) / RFU ARHGAP8 /// PRR5-ARHGAP8 (11727945_x_at) / Fold change /veh ARHGAP8 /// PRR5-ARHGAP8 (11727945_x_at) / RFU KRTAP5-7 /// NADSYN1 (11734609_at) / Fold change /veh KRTAP5-7 /// NADSYN1 (11734609_at) / RFU RASL12 (11751679_a_at) / Fold change /veh RASL12 (11751679_a_at) / RFU CDKN2B (11736163_a_at) / Fold change /veh CDKN2B (11736163_a_at) / RFU PRF1 (11729649_at) / Fold change /veh PRF1 (11729649_at) / RFU, ZNF638 /// ZNF638-IT1 / Fold change vs veh, ZNF638 /// ZNF638-IT1 / RFU, PANK3 / Fold change vs veh, PANK3 / RFU, SH3YL1 / Fold change vs veh, SH3YL1 / RFU, ZEB2 / Fold change vs veh, ZEB2 / RFU, NRIP1 / Fold change vs veh, NRIP1 / RFU, PTTG1IP / Fold change vs veh, PTTG1IP / RFU, CAPN2 / Fold change vs veh, CAPN2 / RFU, MED14 / Fold change vs veh, MED14 / RFU, SNORA58 / Fold change vs veh, SNORA58 / RFU, C1orf63 / Fold change vs veh, C1orf63 / RFU, LRRFIP1 / Fold change vs veh, LRRFIP1 / RFU, NDUFAF7 / Fold change vs veh, NDUFAF7 / RFU, SLC12A2 / Fold change vs veh, SLC12A2 / RFU, IBTK / Fold change vs veh, IBTK / RFU, ESF1 / Fold change vs veh, ESF1 / Fold change vs veh, TMEM50B / RFU, TAOK1 / Fold change vs veh, TAOK1 / RFU, ACBD3 / Fold change vs veh, ACBD3 / RFU, TMA16 / Fold change vs veh, TMA16 / RFU, RWDD3 / Fold change vs veh, RWDD3 / RFU, BCAT1 / Fold change vs veh, BCAT1 / RFU, EDEM3 / Fold change vs veh, EDEM3 / RFU, TMEM33 / Fold change vs veh, TMEM33 / RFU, WDR75 / Fold change vs veh, WDR75 / RFU, AHCTF1 / Fold change vs veh, AHCTF1 / RFU, TFRC / Fold change vs veh, TFRC / RFU, ZDHHC17 / Fold change vs veh, ZDHHC17 / RFU, NOM1 / Fold change vs veh, NOM1 / RFU, ARL8B / Fold change vs veh, ARL8B / RFU, ZBTB11 / Fold change vs veh, ZBTB11 / RFU, TAMM41 / Fold change vs veh, TAMM41 / RFU, KIAA1704 /// LOC100996395 / Fold change vs veh, KIAA1704 /// LOC100996395 / RFU, ING1 / Fold change vs veh, ING1 / RFU, TRMT61B / Fold change vs veh, TRMT61B / RFU, FUBP3 / Fold change vs veh, FUBP3 / RFU, TP53 / Fold change vs veh, TP53 / RFU, TNKS2 / Fold change vs veh, TNKS2 / RFU, ZFP14 / Fold change vs veh, ZFP14 / RFU, ACTR2 / Fold change vs veh, ACTR2 / RFU, PPP3R1 / Fold change vs veh, PPP3R1 / RFU, PIK3R1 / Fold change vs veh, PIK3R1 / RFU, HNRNPA1 / Fold change vs veh, HNRNPA1 / RFU, RNF170 / Fold change vs veh, RNF170 / RFU, ZNF28 / Fold change vs veh, ZNF28 / RFU, RNGTT / Fold change vs veh, RNGTT / RFU, OGT / Fold change vs veh, OGT / RFU, BRD1 / Fold change vs veh, BRD1 / RFU, MARS / Fold change vs veh, MARS / RFU, ZNF655 / Fold change vs veh, ZNF655 / RFU, FAHD1 / Fold change vs veh, FAHD1 / RFU, BDP1 / Fold change vs veh, BDP1 / RFU, LRRCC1 / Fold change vs veh, LRRCC1 / RFU, ARID1A / Fold change vs veh, ARID1A / RFU, ZNF146 / Fold change vs veh, ZNF146 / RFU, ZNF330 / Fold change vs veh, ZNF330 / RFU, GPN3 / Fold change vs veh, GPN3 / RFU, C9orf123 / Fold change vs veh, C9orf123 / RFU, N4BP2L2 / Fold change vs veh, N4BP2L2 / RFU, ARFIP1 / Fold change vs veh, ARFIP1 / RFU, FAM179B / Fold change vs veh, FAM179B / RFU, BCL10 / Fold change vs veh, BCL10 / RFU, UHRF1BP1L / Fold change vs veh, UHRF1BP1L / RFU, BET1 / Fold change vs veh, BET1 / RFU, CNOT2 / Fold change vs veh, CNOT2 / RFU, ZNF268 / Fold change vs veh, ZNF268 / Fold change vs veh, ZNF507 / RFU, DGCR2 / Fold change vs veh, DGCR2 / RFU, WDSUB1 / Fold change vs veh, WDSUB1 / Fold change vs veh, HSP90B1 /// MIR3652 / RFU, ADSS / Fold change vs veh, ADSS / RFU, GK / Fold change vs veh, GK / RFU, ZNF148 / Fold change vs veh, ZNF148 / RFU, TAF9 / Fold change vs veh, TAF9 / RFU, SLC1A5 / Fold change vs veh, SLC1A5 / RFU, SLMO2 / Fold change vs veh, SLMO2 / RFU, ABCC4 / Fold change vs veh, ABCC4 / RFU, LOC101060439 /// RAP1B / Fold change vs veh, LOC101060439 /// RAP1B / RFU, RFX7 / Fold change vs veh, RFX7 / RFU, GTPBP10 / Fold change vs veh, GTPBP10 / RFU, CNEP1R1 / Fold change vs veh, CNEP1R1 / RFU, BIVM-ERCC5 /// ERCC5 / Fold change vs veh, BIVM-ERCC5 /// ERCC5 / RFU, ILF3 / Fold change vs veh, ILF3 / RFU 11762660_at / Fold change /veh 11762660_at / RFU VCAN (11757783_s_at) / Fold change /veh VCAN (11757783_s_at) / RFU DDX43 (11728927_at) / Fold change /veh DDX43 (11728927_at) / RFU KRT8 (11758188_x_at) / Fold change /veh KRT8 (11758188_x_at) / RFU NKD1 (11759106_at) / Fold change /veh NKD1 (11759106_at) / RFU SRD5A1 (11742802_a_at) / Fold change /veh SRD5A1 (11742802_a_at) / RFU TPSAB1 /// TPSB2 (11721975_s_at) / Fold change /veh TPSAB1 /// TPSB2 (11721975_s_at) / RFU GSTM3 (11746129_a_at) / Fold change /veh GSTM3 (11746129_a_at) / RFU IL23R (11737362_x_at) / Fold change /veh IL23R (11737362_x_at) / RFU TMEM51 (11727254_a_at) / Fold change /veh TMEM51 (11727254_a_at) / RFU PIWIL2 (11732686_x_at) / Fold change /veh PIWIL2 (11732686_x_at) / RFU ORM1 (11744905_x_at) / Fold change /veh ORM1 (11744905_x_at) / RFU CCDC152 (11743942_at) / Fold change /veh CCDC152 (11743942_at) / RFU ECM1 (11717891_a_at) / Fold change /veh ECM1 (11717891_a_at) / RFU IL23R (11748794_a_at) / Fold change /veh IL23R (11748794_a_at) / RFU TNFAIP8L3 (11732012_x_at) / Fold change /veh TNFAIP8L3 (11732012_x_at) / RFU MBOAT4 (11741988_at) / Fold change /veh MBOAT4 (11741988_at) / RFU 11764193_at / Fold change /veh 11764193_at / RFU TMEM53 (11763286_at) / Fold change /veh TMEM53 (11763286_at) / RFU MAGEB2 (11727129_at) / Fold change /veh MAGEB2 (11727129_at) / RFU TMEM200A (11744735_a_at) / Fold change /veh TMEM200A (11744735_a_at) / RFU CCDC152 (11751479_a_at) / Fold change /veh CCDC152 (11751479_a_at) / RFU FAM211A (11726209_a_at) / Fold change /veh FAM211A (11726209_a_at) / RFU RGS16 (11746705_a_at) / Fold change /veh RGS16 (11746705_a_at) / RFU VCAN (11755009_s_at) / Fold change /veh VCAN (11755009_s_at) / RFU RHOB (11743442_s_at) / Fold change /veh RHOB (11743442_s_at) / RFU RGS16 (11720943_a_at) / Fold change /veh RGS16 (11720943_a_at) / RFU RGS16 (11720944_at) / Fold change /veh RGS16 (11720944_at) / RFU, VPS4B / Fold change vs veh, VPS4B / RFU, CREB1 / Fold change vs veh, CREB1 / RFU, DNAJC13 / Fold change vs veh, DNAJC13 / RFU, GNAQ / Fold change vs veh, GNAQ / RFU, CDK5R1 / Fold change vs veh, CDK5R1 / RFU, ZRANB3 / Fold change vs veh, ZRANB3 / RFU, CUL4A / Fold change vs veh, CUL4A / RFU, CCNY / Fold change vs veh, CCNY / RFU, UFL1 / Fold change vs veh, UFL1 / RFU, COG3 / Fold change vs veh, COG3 / RFU, DIAPH2 / Fold change vs veh, DIAPH2 / RFU, SKA2 / Fold change vs veh, SKA2 / RFU, AFF3 / Fold change vs veh, AFF3 / RFU, LMF1 / Fold change vs veh, LMF1 / RFU, IPO11 / Fold change vs veh, IPO11 / RFU, DFFB / Fold change vs veh, DFFB / RFU, FOXP1 / Fold change vs veh, FOXP1 / RFU, CARD8 / Fold change vs veh, CARD8 / RFU, STRN3 / Fold change vs veh, STRN3 / RFU, ADK / Fold change vs veh, ADK / RFU, RASSF2 / Fold change vs veh, RASSF2 / RFU, WIPF1 / Fold change vs veh, WIPF1 / RFU, LARP1B / Fold change vs veh, LARP1B / RFU, RASA1 / Fold change vs veh, RASA1 / RFU, RB1 / Fold change vs veh, RB1 / RFU, PPFIA1 / Fold change vs veh, PPFIA1 / RFU, MAT2A / Fold change vs veh, MAT2A / RFU, CCT5 / Fold change vs veh, CCT5 / RFU, WDR92 / Fold change vs veh, WDR92 / RFU, CUX1 / Fold change vs veh, CUX1 / RFU, TTC7A / Fold change vs veh, TTC7A / RFU, TMEM135 / Fold change vs veh, TMEM135 / RFU, DEPTOR / Fold change vs veh, DEPTOR / RFU, CPM / Fold change vs veh, CPM / RFU, DNAJB6 / Fold change vs veh, DNAJB6 / RFU, CACNA2D3 / Fold change vs veh, CACNA2D3 / RFU, DTX4 / Fold change vs veh, DTX4 / RFU, TFCP2 / Fold change vs veh, TFCP2 / RFU, GMCL1 /// GMCL1P1 / Fold change vs veh, GMCL1 /// GMCL1P1 / RFU, AEBP2 / Fold change vs veh, AEBP2 / RFU, SNHG1 /// SNORD22 /// SNORD25 /// SNORD26 /// SNORD27 /// SNORD28 /// SNORD29 /// SNORD31 / Fold change vs veh, SNHG1 /// SNORD22 /// SNORD25 /// SNORD26 /// SNORD27 /// SNORD28 /// SNORD29 /// SNORD31 / Fold change (Aza/veh), C12orf56 (ProbeSet 11735607_a_at) / Fold change (ACY-1035/veh), C12orf56 (ProbeSet 11735607_a_at) / Fold change (Aza/veh), FGFR1OP (ProbeSet 11751329_s_at) / Fold change (ACY-1035/veh), FGFR1OP (ProbeSet 11751329_s_at) / Fold change (Aza/veh), VPS36 (ProbeSet 11739960_a_at) / Fold change (ACY-1035/veh), VPS36 (ProbeSet 11739960_a_at) / RFU SYPL1 (11715823_x_at) / Fold change /veh SYPL1 (11715823_x_at) / RFU IGFBP7 (11715501_s_at) / Fold change /veh IGFBP7 (11715501_s_at) / RFU REEP3 (11722064_at) / Fold change /veh REEP3 (11722064_at) / RFU IGLL1 (11728026_x_at) / Fold change /veh IGLL1 (11728026_x_at): dose or concentration left out as unconfirmed
# Details: ProbeSet 11729384_s_at; LIST D
compound,measurement,value
Nc1ccc(-c2cccs2)cc1NC(=O)c1ccc2c(c1)cc(C1CC1)n2CCN1CCOCC1 [ACY-1035],"RFU, CCNY",178.51 RFU
